Data taken from ChEMBL document CHEMBL2150897, “Discovery of DS-8108b, a Novel Orally Bioavailable Renin Inhibitor” (ACS Med Chem Lett, 2012).
Where a chain is given by its changes, count along the chain named.

Key:
Cynomolgus monkey [1] = test: Ex vivo inhibition of plasma renin activity in po dosed cynomolgus monkey administered after furosemide treatment measured up to 24 hrs; format: functional, organism-based; settings: Macaca fascicularis
[2] = biological target: Sodium channel protein type 5 subunit alpha (Homo sapiens, UniProt Q14524); test: Inhibition of human Nav 1.5 at 100 uM
Chain of Sodium channel protein type 5 subunit alpha (Q14524 whole entry): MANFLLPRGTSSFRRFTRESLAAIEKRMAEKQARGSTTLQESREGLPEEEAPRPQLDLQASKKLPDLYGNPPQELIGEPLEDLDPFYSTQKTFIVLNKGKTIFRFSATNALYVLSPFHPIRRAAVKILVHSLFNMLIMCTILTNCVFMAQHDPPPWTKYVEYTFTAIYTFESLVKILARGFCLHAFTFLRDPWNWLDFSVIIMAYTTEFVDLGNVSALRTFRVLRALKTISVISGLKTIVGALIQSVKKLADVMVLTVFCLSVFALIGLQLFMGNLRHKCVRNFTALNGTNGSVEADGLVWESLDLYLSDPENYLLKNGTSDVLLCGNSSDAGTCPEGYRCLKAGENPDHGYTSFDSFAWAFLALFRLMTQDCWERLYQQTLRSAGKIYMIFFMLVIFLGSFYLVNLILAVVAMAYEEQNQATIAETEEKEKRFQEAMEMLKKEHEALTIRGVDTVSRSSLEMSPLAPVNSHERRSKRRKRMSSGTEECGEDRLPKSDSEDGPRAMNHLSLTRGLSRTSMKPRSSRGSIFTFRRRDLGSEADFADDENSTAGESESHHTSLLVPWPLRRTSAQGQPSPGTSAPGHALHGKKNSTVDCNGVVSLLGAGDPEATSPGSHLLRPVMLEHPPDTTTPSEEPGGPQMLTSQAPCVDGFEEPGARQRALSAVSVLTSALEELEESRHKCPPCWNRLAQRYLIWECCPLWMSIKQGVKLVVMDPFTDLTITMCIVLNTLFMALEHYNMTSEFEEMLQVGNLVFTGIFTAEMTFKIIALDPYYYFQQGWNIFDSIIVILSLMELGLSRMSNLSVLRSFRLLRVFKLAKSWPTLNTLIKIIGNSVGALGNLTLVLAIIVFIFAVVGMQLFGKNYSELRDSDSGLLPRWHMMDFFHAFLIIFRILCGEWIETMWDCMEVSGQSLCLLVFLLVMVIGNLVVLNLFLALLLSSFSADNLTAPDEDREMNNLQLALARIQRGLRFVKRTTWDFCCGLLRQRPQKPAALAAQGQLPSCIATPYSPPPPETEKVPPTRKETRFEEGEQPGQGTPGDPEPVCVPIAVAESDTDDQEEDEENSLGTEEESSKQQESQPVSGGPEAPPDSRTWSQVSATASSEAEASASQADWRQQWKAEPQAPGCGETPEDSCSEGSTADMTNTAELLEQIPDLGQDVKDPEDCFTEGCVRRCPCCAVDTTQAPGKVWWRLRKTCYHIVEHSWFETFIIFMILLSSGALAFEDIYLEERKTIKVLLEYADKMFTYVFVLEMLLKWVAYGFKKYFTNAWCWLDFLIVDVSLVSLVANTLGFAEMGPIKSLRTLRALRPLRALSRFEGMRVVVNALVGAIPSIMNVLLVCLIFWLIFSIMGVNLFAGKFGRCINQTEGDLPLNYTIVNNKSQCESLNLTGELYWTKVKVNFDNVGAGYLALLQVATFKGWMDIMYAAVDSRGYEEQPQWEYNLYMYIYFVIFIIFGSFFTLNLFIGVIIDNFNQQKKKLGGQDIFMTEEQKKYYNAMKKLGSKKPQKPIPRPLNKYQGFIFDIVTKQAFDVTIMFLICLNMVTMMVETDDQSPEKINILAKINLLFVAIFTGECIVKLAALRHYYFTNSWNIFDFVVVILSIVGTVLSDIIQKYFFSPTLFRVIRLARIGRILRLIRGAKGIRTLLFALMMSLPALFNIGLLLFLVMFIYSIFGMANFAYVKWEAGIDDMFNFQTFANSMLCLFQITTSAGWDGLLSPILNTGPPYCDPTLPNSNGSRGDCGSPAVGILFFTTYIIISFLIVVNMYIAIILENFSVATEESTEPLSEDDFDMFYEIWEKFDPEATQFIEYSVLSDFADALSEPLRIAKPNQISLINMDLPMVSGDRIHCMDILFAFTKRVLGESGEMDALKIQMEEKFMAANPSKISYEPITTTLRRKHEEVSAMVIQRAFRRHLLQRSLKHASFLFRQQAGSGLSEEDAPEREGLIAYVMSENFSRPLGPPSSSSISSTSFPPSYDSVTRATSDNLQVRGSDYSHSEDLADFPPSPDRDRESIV

[3] = Volume of distribution at steady state in cynomolgus monkey at 3 mg/kg, iv; format: ADME, organism-based, Macaca fascicularis; set-up: dose 3 mg/kg, route intravenous; settings: in vivo, read-out: Vdss
[4] = Inhibition of Cytochrome P450; format: ADME
Salmonella typhimurium [5] = test: Mutagenic activity in Salmonella typhimurium in presence of S9 mixture; format: toxicity, organism-based; settings: salmonella enterica subsp. enterica serovar typhimurium
[6] = Cmax in cynomolgus monkey at 3 mg/kg, po; format: ADME, organism-based, Macaca fascicularis; set-up: dose 3 mg/kg, route oral; settings: in vivo
[7] = AUC ( 0 to t) in cynomolgus monkey at 3 mg/kg, iv; format: ADME, organism-based, Macaca fascicularis; set-up: dose 3 mg/kg, route intravenous; settings: plasma
[8] = Inhibition of human pepsin
[9] = Half life in cynomolgus monkey at 3 mg/kg, po; format: ADME, organism-based, Macaca fascicularis; set-up: dose 3 mg/kg, route oral; settings: in vivo
Cynomolgus monkey [10] = test: Ex vivo inhibition of plasma renin activity in cynomolgus monkey at 3 mg/kg, po administered after furosemide treatment measured after 24 hrs; format: functional; settings: Macaca fascicularis
Cynomolgus monkey [11] = test: Cardiotoxicity in telemetered cynomolgus monkey assessed as change in QRS width at 1000 mg/kg, po administered as single dose measured up to 24 hrs; format: toxicity, organism-based, Macaca fascicularis; set-up: dose 1000 mg/kg, route oral; settings: in vivo
Cynomolgus monkey [12] = test: Antihypertensive activity in po dosed cynomolgus monkey assessed as reduction in mean arterial pressure administered as single dose 3 days prior to furosemide treatment measured up to 12 hrs; format: functional, organism-based; settings: Macaca fascicularis; Artery
[13] = Half life in cynomolgus monkey at 3 mg/kg, iv; format: ADME, organism-based, Macaca fascicularis; set-up: dose 3 mg/kg, route intravenous; settings: in vivo
Cathepsin E = biological target: T1, Cathepsin E (Homo sapiens, UniProt P14091); test: Inhibition of human cathepsin E
T1 sequence (P14091 whole entry): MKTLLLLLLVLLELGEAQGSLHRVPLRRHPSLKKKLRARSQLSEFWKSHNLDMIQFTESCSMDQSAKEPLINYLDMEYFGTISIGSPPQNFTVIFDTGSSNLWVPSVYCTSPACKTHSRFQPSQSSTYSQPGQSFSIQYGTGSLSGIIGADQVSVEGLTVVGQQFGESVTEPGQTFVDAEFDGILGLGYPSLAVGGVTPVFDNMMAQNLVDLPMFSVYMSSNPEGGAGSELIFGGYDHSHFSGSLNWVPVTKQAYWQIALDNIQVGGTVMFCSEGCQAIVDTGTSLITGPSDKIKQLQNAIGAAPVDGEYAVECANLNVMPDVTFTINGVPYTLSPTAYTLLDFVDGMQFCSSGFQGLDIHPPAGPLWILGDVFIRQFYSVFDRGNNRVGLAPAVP

[14] = Oral bioavailability in cynomolgus monkey at 3 mg/kg; format: ADME, organism-based, Macaca fascicularis; settings: in vivo
Salmonella typhimurium [15] = test: Mutagenic activity in Salmonella typhimurium; format: toxicity, organism-based; settings: salmonella enterica subsp. enterica serovar typhimurium
[16] = Cmax in cynomolgus monkey at 10 mg/kg, po; format: ADME, organism-based, Macaca fascicularis; set-up: dose 10 mg/kg, route oral; settings: in vivo
[17] = Tmax in cynomolgus monkey at 10 mg/kg, po; format: ADME, organism-based, Macaca fascicularis; set-up: dose 10 mg/kg, route oral; settings: in vivo
Renin [18] = biological target: T2, Renin (Homo sapiens, UniProt P00797); test: Inhibition of human recombinant renin compound treated for 10 mins before substrate addition measured after 90 mins by fluorescence method
T2 sequence (P00797 whole entry): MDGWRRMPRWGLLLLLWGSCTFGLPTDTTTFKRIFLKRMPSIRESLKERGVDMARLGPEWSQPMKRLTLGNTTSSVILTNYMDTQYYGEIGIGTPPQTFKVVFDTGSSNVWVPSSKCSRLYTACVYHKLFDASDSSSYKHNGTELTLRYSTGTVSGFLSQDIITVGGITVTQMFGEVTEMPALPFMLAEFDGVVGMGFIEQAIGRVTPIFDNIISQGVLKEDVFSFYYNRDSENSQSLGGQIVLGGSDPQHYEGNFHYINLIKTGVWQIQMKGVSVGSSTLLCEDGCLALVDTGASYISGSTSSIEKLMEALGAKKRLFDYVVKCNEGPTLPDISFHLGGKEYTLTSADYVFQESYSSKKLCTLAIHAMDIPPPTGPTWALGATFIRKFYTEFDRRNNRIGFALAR

Renin [19] = biological target: T3, Renin (Macaca fascicularis, UniProt Q6DLS0); test: Inhibition of cynomolgus monkey plasma renin activity after 60 mins by competitive RIA
T3 sequence (Q6DLS0 whole entry): T2 sequence (P00797 whole entry) with T68A, I214L, S235A

Cathepsin D = Cathepsin D (Homo sapiens, UniProt P07339); test: Inhibition of human cathepsin D
Chain of Cathepsin D (P07339 65-162 limits assumed): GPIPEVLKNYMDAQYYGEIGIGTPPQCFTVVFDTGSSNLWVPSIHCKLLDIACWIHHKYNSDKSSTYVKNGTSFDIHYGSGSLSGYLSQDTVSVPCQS
Chain of Cathepsin D (P07339 169-412 limits assumed): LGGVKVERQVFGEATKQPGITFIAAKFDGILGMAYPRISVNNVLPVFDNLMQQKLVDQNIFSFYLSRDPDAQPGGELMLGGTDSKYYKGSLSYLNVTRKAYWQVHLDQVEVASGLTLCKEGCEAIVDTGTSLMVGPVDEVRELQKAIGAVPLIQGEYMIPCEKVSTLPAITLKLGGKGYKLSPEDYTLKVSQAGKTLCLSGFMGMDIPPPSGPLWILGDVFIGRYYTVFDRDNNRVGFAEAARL

[20] = Inhibition of HIV protease; set-up: species or system Human immunodeficiency virus
Cynomolgus monkey [21] = test: Cardiotoxicity in telemetered cynomolgus monkey assessed as change in QTc interval at 1000 mg/kg, po administered as single dose measured up to 24 hrs; format: toxicity, organism-based, Macaca fascicularis; set-up: dose 1000 mg/kg, route oral; settings: in vivo
[22] = Tmax in cynomolgus monkey at 3 mg/kg, po; format: ADME, organism-based, Macaca fascicularis; set-up: dose 3 mg/kg, route oral; settings: in vivo
Renin [23] = biological target: T2, Renin; test: Inhibition of human plasma renin activity after 60 mins by competitive RIA
[24] = Half life in cynomolgus monkey at 10 mg/kg, po; format: ADME, organism-based, Macaca fascicularis; set-up: dose 10 mg/kg, route oral; settings: in vivo
[25] = AUC ( 0 to t) in cynomolgus monkey at 10 mg/kg, po; format: ADME, organism-based, Macaca fascicularis; set-up: dose 10 mg/kg, route oral; settings: plasma
[26] = AUC ( 0 to t) in cynomolgus monkey at 3 mg/kg, po; format: ADME, organism-based, Macaca fascicularis; set-up: dose 3 mg/kg, route oral; settings: plasma
[27] = biological target: Voltage-gated inwardly rectifying potassium channel KCNH2 (Homo sapiens, UniProt Q12809); test: Inhibition of human ERG at 100 uM
Chain of Voltage-gated inwardly rectifying potassium channel KCNH2 (Q12809 whole entry): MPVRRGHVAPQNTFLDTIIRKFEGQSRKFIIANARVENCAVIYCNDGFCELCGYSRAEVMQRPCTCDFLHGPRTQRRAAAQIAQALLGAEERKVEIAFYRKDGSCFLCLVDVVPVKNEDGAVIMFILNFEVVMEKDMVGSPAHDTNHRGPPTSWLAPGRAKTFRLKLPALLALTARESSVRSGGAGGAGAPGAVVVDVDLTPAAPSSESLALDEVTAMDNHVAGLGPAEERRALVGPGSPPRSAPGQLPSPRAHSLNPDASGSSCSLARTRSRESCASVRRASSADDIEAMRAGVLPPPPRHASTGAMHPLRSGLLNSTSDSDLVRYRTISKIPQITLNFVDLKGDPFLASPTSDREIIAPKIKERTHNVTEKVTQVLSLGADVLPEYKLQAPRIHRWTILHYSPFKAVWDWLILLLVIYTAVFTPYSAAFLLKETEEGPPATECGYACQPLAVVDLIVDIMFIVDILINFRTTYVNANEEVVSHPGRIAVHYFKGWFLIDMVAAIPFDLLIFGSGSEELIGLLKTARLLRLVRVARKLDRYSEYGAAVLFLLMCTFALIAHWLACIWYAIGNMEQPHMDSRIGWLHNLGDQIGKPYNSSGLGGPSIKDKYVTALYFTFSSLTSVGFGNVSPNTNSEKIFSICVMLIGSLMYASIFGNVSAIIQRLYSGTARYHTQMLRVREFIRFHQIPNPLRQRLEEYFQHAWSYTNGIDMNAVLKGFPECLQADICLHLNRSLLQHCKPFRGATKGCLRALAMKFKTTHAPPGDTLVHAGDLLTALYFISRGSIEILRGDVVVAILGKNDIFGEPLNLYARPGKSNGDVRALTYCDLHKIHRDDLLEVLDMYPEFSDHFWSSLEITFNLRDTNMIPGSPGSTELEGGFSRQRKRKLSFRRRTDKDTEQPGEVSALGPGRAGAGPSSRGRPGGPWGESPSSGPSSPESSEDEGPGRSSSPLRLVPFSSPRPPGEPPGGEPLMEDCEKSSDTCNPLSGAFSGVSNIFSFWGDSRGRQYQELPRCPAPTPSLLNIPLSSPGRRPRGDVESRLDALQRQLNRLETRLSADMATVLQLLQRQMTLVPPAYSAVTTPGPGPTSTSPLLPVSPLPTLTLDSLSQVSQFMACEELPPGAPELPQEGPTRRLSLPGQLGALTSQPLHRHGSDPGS

Cynomolgus monkey [28] = test: Ex vivo inhibition of plasma renin activity in cynomolgus monkey at 10 mg/kg, po administered after furosemide treatment measured after 24 hrs; format: functional; settings: Macaca fascicularis
[29] = Clearance in cynomolgus monkey at 3 mg/kg, iv; format: ADME, organism-based, Macaca fascicularis; set-up: dose 3 mg/kg, route intravenous; settings: in vivo
[30] = Oral bioavailability in cynomolgus monkey at 10 mg/kg; format: ADME, organism-based, Macaca fascicularis; settings: in vivo
Cynomolgus monkey [31] = test: Ex vivo inhibition of plasma renin activity in cynomolgus monkey at 3 to 10mg/kg, po administered after furosemide treatment measured after 24 hrs relative to aliskiren hemifumarate; format: functional, Macaca fascicularis

## CC[C@H](C[C@H](O)[C@@H](N)CN1CC(=O)N(c2ccccc2Cl)CC1(C)C)C(=O)NC1C2CC3CC1CC(O)(C3)C2.O.O=C(O)/C=C/C(=O)O (stereo partly drawn)
Cynomolgus monkey [1]
  inhibition: Dose-dependent effect
[2]
  inhibition (INH): Not Active
[3]
  Vd: 1.12 L/kg
[4]
  IC50: > 10000 nM
Salmonella typhimurium [5]
  Activity: Non-toxic
[6]
  Cmax: 102 ng/mL
[7]
  AUC(0-t): 15500 ng·h/mL
[8]
  IC50: > 10000 nM
[9]
  half-life: 5.1 h
Cynomolgus monkey [10]
  inhibition in vivo at 3 mg/kg: 65%
Cynomolgus monkey [11]
  Activity: Non-toxic
Cynomolgus monkey [12]
  Activity: Dose-dependent effect
[13]
  half-life: 7.8 h
Cathepsin E
  IC50: > 10000 nM
[14]
  bioavailability: 4.1%
Salmonella typhimurium [15]
  Activity: Non-toxic
[16]
  Cmax: 399 ng/mL
[17]
  Tmax: 2.3 h
Renin [18]
  IC50: 0.9 nM
Renin [19]
  IC50: 6.3 nM
Cathepsin D
  IC50: > 10000 nM
[20]
  IC50: > 10000 nM
Cynomolgus monkey [21]
  Activity: Non-toxic
[22]
  Tmax: 3 h
Renin [23]
  IC50: 1.9 nM
[24]
  half-life: 5.4 h
[25]
  AUC(0-t): 2880 ng·h/mL
[26]
  AUC(0-t): 685 ng·h/mL
[27]
  inhibition (INH): Not Active
Cynomolgus monkey [28]
  inhibition in vivo at 10 mg/kg: 65%
[29]
  clearance: 3.59 mL/min/kg
[30]
  bioavailability: 5.3%
Cynomolgus monkey [31]
  Ratio: 3
